ChEMBL document CHEMBL1141942, “Novel 7-methoxy-6-oxazol-5-yl-2,3-dihydro-1H-quinazolin-4-ones as IMPDH inhibitors” (Bioorg Med Chem Lett, 2005)
In brackets after ≈: the same amount, converted by molar mass.

How the values were obtained:
[1] = Solubility at pH 6.5; format: physicochemical; settings: buffer
[2] = biological target: T1, Inosine-5'-monophosphate dehydrogenase 2 (Homo sapiens, UniProt P12268); experiment: Inhibitory activity against IMPDH II
[3] = Intrinsic clearance in human liver microsomes; format: ADME, Microsome
PBMC = experiment: Antiproliferative activity in PMBC; format: functional, cell-based; settings: Homo sapiens
[4] = biological target: T1, Inosine-5'-monophosphate dehydrogenase 2; settings: 10 uM
Description: Inhibitory activity against IMPDH II at 10 uM

Structure (SMILES)	solubility [1] [µg/mL]	IC50 [2] [µM]	microsomal CLint [3] [µL/min/mg]	IC50 (PBMC) [µM]	inhibition [4] [%]
COc1cc2c(cc1-c1cnco1)C(=O)N(C)C1(CCN(C(=O)OC(C)(C)C)C1)N2 (stereo unspecified)	101 (≈ 244 µM)	0.104	42	0.97	–
COc1cc2[nH]c(=O)n(C)c(=O)c2cc1-c1cnco1	3 (≈ 11 µM)	–	–	4	–
COC(=O)[C@@H]1C[C@]2(CN1C(=O)OC(C)(C)C)Nc1cc(OC)c(-c3cnco3)cc1C(=O)N2C	–	0.369	–	–	–
COc1cc2c(cc1-c1cnco1)C(=O)N(C)C1(CCOCC1)N2	–	0.526	–	11.6	–
COc1cc2c(cc1-c1cnco1)C(=O)N(C)C1(CCN(C(=O)Nc3ccccc3)C1)N2 (stereo unspecified)	–	0.393	19	16	–
COc1cc2c(cc1-c1cnco1)C(=O)N(C)C(C)(/C=C/c1ccccc1)N2 (stereo unspecified)	–	0.049	–	3	–
COC(=O)[C@@H]1C[C@@]2(CN1C(=O)OC(C)(C)C)Nc1cc(OC)c(-c3cnco3)cc1C(=O)N2C	–	0.948	–	–	–
COc1cc2c(cc1-c1cnco1)C(=O)N(C)C(C)(C)N2	77 (≈ 268 µM)	0.192	–	21	–
CCN(CC)C(=O)N1CCC2(C1)Nc1cc(OC)c(-c3cnco3)cc1C(=O)N2C (stereo unspecified)	813 (≈ 1970 µM)	0.045	92	0.54	–
COc1cc2c(cc1-c1cnco1)C(=O)N(C)C1(CCN(C(=O)N3CCCCC3)C1)N2 (stereo unspecified)	–	0.068	152	1.8	–
COC(=O)[C@H]1C[C@]2(CN1C(=O)OC(C)(C)C)Nc1cc(OC)c(-c3cnco3)cc1C(=O)N2C	–	0.035	18	1.5	–
COc1cc2c(cc1-c1cnco1)C(=O)N(C)C1(CCN(C(=O)N(C)OC)C1)N2 (stereo unspecified)	–	0.079	38	1.9	–
CCNC(=O)N1CCC2(C1)Nc1cc(OC)c(-c3cnco3)cc1C(=O)N2C (stereo unspecified)	–	0.119	11	7.2	–
COc1cc2c(cc1-c1cnco1)C(=O)N(CCc1ccncc1)C(C)(C)N2	–	0.3	–	37	–
COc1cc2c(cc1-c1cnco1)C(=O)N(C)C1(CCN(C(=O)N(C)c3ccccc3)C1)N2 (stereo unspecified)	–	0.064	144	0.86	–
COc1cc2c(cc1-c1cnco1)C(=O)N(C)C1(CCCC1)N2	–	0.328	–	8.5	–
COc1cc2c(cc1-c1cnco1)C(=O)N(C)C1(CCN(C(=O)C(C)(C)C)C1)N2 (stereo unspecified)	–	0.094	46	0.54	–
COC(=O)[C@H]1C[C@@]2(CN1C(=O)OC(C)(C)C)Nc1cc(OC)c(-c3cnco3)cc1C(=O)N2C	–	–	–	–	26
CCOC(=O)N1CCC2(C1)Nc1cc(OC)c(-c3cnco3)cc1C(=O)N2C (stereo unspecified)	–	0.08	24	1.2	–
COc1cc2c(cc1-c1cnco1)C(=O)N(C)C1(CCN(C(=O)N(C)c3ccc(F)cc3F)C1)N2 (stereo unspecified)	–	0.051	97	1.2	–
COc1cc2c(cc1-c1cnco1)C(=O)N(C)C1(Cc3ccsc3C1)N2 (stereo unspecified)	–	0.096	–	1.9	–
COc1cc2c(cc1-c1cnco1)C(=O)N(C)C1(CCN(C(=O)N(C(C)C)C(C)C)C1)N2 (stereo unspecified)	–	0.071	612	0.07	–
